We go through 4 compounds from patent US20070082870A1, “Pharmaceutical formulations of cyclodextrins and antifungal azole compounds” (priority 2005, published 2007).

Data set [1] can be described thus: Equilibrium solubility of ketoconazole in water and buffers at 10 wt % HBenBCD. The class given is physicochemical. The method, then:
The following is a typical procedure for determining the solubility of a drug in a given solvent. To each well of a 2 mL 96-well polypropylene mixing plate was added excess drug (ca. 5-10 mg). […] The cavities on the loading plate were arranged so that they corresponded to the individual wells of the 96-well mixing plate. A line of drug was placed at one end of the loading plate and a glass plate was used to distribute the drug into each cavity. The 96-well mixing plate was placed on the loading plate then inverted and tapped so that the drug dropped into the appropriate well of the mixing plate.
(§1) To each well of the pre-loaded 96-well mixing plate was added 300-500 μL of water or buffer (blanks with no CD) or the appropriate CD solution. Typically, each determination was in triplicate. The blanks were used to determine the intrinsic solubility (So) of drug in that solution and the well containing the CD solutions were used to determine the solubility of drug due to CD (Sw). After addition of the stock solutions, the plate was sealed using aluminum foil with a non-volatile adhesive on one surface. The plate was placed on a rotary shaking plate (Helidolph Titramax 1000) and the plate was shaken at 800-1200 rpm at 23° C.±2° for 48-72 h. During the mixing period, the plate was inspected to insure that each well contained undissolved, excess drug. Additional drug was added if necessary.
(§2) Following the mixing period, the solutions in each well were transferred to the corresponding wells of a 96-well 2 mL multiscreen filter plate using a multi-channel pipette. The bottom of each well was a hydrophilic membrane (Millipore Corporation). The filter plate was placed on top of a vacuum manifold and the solutions were filtered at ca. 20 mm Hg into the corresponding wells of a 2 mL storage plate. The duration of the filtration period was typically no more than 60 seconds. The storage plate was then sealed with a silicon mat and samples were removed for analysis as appropriate.
The drug content in each well can be determined by a number of methods. Ultraviolet spectroscopy (UV) or high pressure liquid chromatography (HPLC) is preferred. In the present example, UV spectroscopy was used. […] Measurements were made using a SpectraMax Plus 384 Molecular Devices multi-well plate reader. Absorbance was converted to drug concentration using the appropriate absorbtivity for the drug. The drug concentrations were then exported to the appropriate software package for final analysis.
The general protocol described in Example 1 was utilized to determine the equilibrium solubility of ketoconazole in water and buffers at 10 wt % HBenBCD concentration.

Data set [2] can be described thus: Equilibrium solubility of itraconazole in water and buffers at 10 wt % cyclodextrin. The following applies: water. The class given is physicochemical. The method, then: Stock solutions of cyclodextrins were prepared by dissolving an accurately weighed amount of previously dried cyclodextrin in water or in buffer to give a final cyclodextrin concentration of 10 wt %. In this example, the cyclodextrins were HBenBCD, HPBCD, and SBEBCD. The buffers were 0.05 M pH3 phosphate, 0.05 M pH 3 citrate, and 0.05 M pH 4.8 acetate.
(§3) The following is a typical procedure for determining the solubility of a drug in a given solvent. To each well of a 2 mL 96-well polypropylene mixing plate was added excess drug (ca. 5-10 mg). The drug was typically added by using a metal loading plate having cavities that will hold an approximate predetermined amount of drug. The cavities on the loading plate were arranged so that they corresponded to the individual wells of the 96-well mixing plate. A line of drug was placed at one end of the loading plate and a glass plate was used to distribute the drug into each cavity. The 96-well mixing plate was placed on the loading plate then inverted and tapped so that the drug dropped into the appropriate well of the mixing plate.
as §1, §2
(§4) The drug content in each well can be determined by a number of methods. Ultraviolet spectroscopy (UV) or high pressure liquid chromatography (HPLC) is preferred. In the present example, UV spectroscopy was used. Typically, 10-20 μL of drug solution was transferred to the corresponding well of a 96-well measurement plate (UV-STAR plates from Greiner with a spectral range of 190-400 nm) and diluted with 1/1 water/ethanol so that the absorbance was in the linear response range. Measurements were made using a SpectraMax Plus 384 Molecular Devices multi-well plate reader. Absorbance was converted to drug concentration using the appropriate absorbtivity for the drug. The drug concentrations were then exported to the appropriate software package for final analysis.

Data set [3] is described as follows: Equilibrium solubility of itraconazole in water and pH 3 phosphate buffer, 0 to 25 wt % cyclodextrin. The class given is physicochemical. The method, then:
as §3
(§5) To each well of the pre-loaded 96-well mixing plate was added 300-500 μL of water or buffer (blanks with no CD) or the appropriate CD solution. […]
(§6) The drug content in each well can be determined by a number of methods. […] Typically, 10-20 μL of drug solution was transferred to the corresponding well of a 96-well measurement plate (UV-STAR plates from Greiner with a spectral range of 190-400 nm) and diluted with 1/1 water/ethanol so that the absorbance was in the linear response range. Measurements were made using a SpectraMax Plus 384 Molecular Devices multi-well plate reader. Absorbance was converted to drug concentration using the appropriate absorbtivity for the drug. […]

Data set [4] is described as follows: Equilibrium solubility of clotrimazole in water, 0 to ca. 25 wt % cyclodextrin. The class given is physicochemical. The method, then:
as §3, §5, §6

Data set [5] is classed as physicochemical. The following applies: pH 3. On the procedure:
as §3, §5, §6

The next data set is described as follows: physchem. It is filed as physicochemical. The settings on record: for solubility: 23 °C, thermodynamic from solid. On the procedure:
as §3, §1, §2, §4
The general protocol described in Example 1 was utilized to determine the equilibrium solubility of voriconazole in water and buffers at 10 wt % HBenBCD concentration.

Converted amounts (≈) assume the structure as drawn.

For the compound `CC(=O)N1CCN(c2ccc(OC[C@H]3CO[C@](Cn4ccnc4)(c4ccc(Cl)cc4Cl)O3)cc2)CC1` (racemic) [ketoconazole], the Sw/So in data set [1] (pH 3 D,L-tartrate) stood at 2.7; in data set [1] (pH 3 D-tartrate), 3.2; in data set [1] (pH 3 L-tartrate), 2.8; in data set [1] (pH 3 citrate), 3.3; in data set [1] (pH 3 phosphate), 4.3; in data set [1] (pH 4.8 acetate), 95.5. The Sw/So in data set [1] (pH 7.3 phosphate) is 548.9; in data set [1] (water) it was 600.4.

Turning to itraconazole, the Sw/So worked out at 17.2 in data set [2] (10 wt % HBenBCD), 3.8 in data set [2] (10 wt % HPBCD), 4.2 in data set [2] (10 wt % SBEBCD) and 132 in data set [3] (ca. 25 wt % HBenBCD). Further, the “solubility of itraconazole due to CD (Sw)” value in data set [2] (10 wt % HBenBCD) was found to be 0.515 ng/mL. Besides, the “intrinsic solubility (So) of itraconazole” value in data set [2] (no cyclodextrin) turned out to be 0.03 ng/mL. Further, in data set [3] (ca. 25 wt % CD), the “Sw/So for HBenBCD, fold greater than that for HPBCD” value was 4 X.

In the case of `Clc1ccccc1C(c1ccccc1)(c1ccccc1)n1ccnc1` [clotrimazole], in data set [4] (ca. 25 wt % CD), the “Sw/So for HBenBCD, fold greater than that for HPBCD” value is recorded as 2.4 X. The Sw/So in data set [4] (ca. 25 wt % HBenBCD) is given as 12.3.

As a reminder, the solubility is the concentration that dissolves in the medium under given conditions. High values mean much dissolved substance, low ones little dissolved substance. `C[C@@H](c1ncncc1F)[C@](O)(Cn1cncn1)c1ccc(F)cc1F` (single isomer, unassigned) [voriconazole]: the “more voriconazole solubilized by HBenBCD than SBEBCD” value in data set [5] was 25%. Also, the Sw/So in the data set “physchem” was found to be 9.8; in the data set “physchem” (pH 1.2) it was 3.2; in “physchem” (pH 7.3), 9.6. Further, the solubility in the data set “physchem” (pH 1.2, aqueous with cosolvent or surfactant or cyclodextrin, Sw (solubility with CD)) is 10.2 mg/mL (≈ 29.2 mM); in “physchem” (pH 1.2, simulated gastric fluid, So (intrinsic solubility)), 3.2 mg/mL (≈ 9.16 mM).
